#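 96-well plates; 48 h exposure; 5 concentrations. Endpoints by linear interpolation between flanking doses. Not reached: highest tested concentration assigned. Definition used: TGI = concentration required for complete inhibition of growth.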
# Assays:
# Assay in all cases: DTP human tumour cell line panel, 48 h
# SNB-75 CNS = tested on: SNB-75 CNS
# OVCAR-8 ovarian = tested on: OVCAR-8 ovarian
# A549 NSCLC = tested on: A549 NSCLC
# SF-295 CNS = tested on: SF-295 CNS
# MALME-3M melanoma = tested on: MALME-3M melanoma
# MOLT-4 leukemia = tested on: MOLT-4 leukemia
# SW-620 colon = tested on: SW-620 colon
# HCC-2998 colon = tested on: HCC-2998 colon
# SK-MEL-2 melanoma = tested on: SK-MEL-2 melanoma
# SNB-19 CNS = tested on: SNB-19 CNS
# RPMI-8226 leukemia = tested on: RPMI-8226 leukemia
# NCI-H522 lung = tested on: NCI-H522 lung
# M14 melanoma = tested on: M14 melanoma
# HCT-116 colon = tested on: HCT-116 colon
# SR leukemia = tested on: SR leukemia
# HOP-62 NSCLC = tested on: HOP-62 NSCLC
# NCI/ADR-RES ovarian = tested on: NCI/ADR-RES ovarian
# SK-MEL-28 melanoma = tested on: SK-MEL-28 melanoma
# COLO 205 colon = tested on: COLO 205 colon
Compound,TGI (SNB-75 CNS) [µM],TGI (OVCAR-8 ovarian) [µM],TGI (A549 NSCLC) [µM],TGI (SF-295 CNS) [µM],TGI (MALME-3M melanoma) [µM],TGI (MOLT-4 leukemia) [µM],TGI (SW-620 colon) [µM],TGI (HCC-2998 colon) [µM],TGI (SK-MEL-2 melanoma) [µM],TGI (SNB-19 CNS) [µM],TGI (RPMI-8226 leukemia) [µM],TGI (NCI-H522 lung) [µM],TGI (M14 melanoma) [µM],TGI (HCT-116 colon) [µM],TGI (SR leukemia) [µM],TGI (HOP-62 NSCLC) [µM],TGI (NCI/ADR-RES ovarian) [µM],TGI (SK-MEL-28 melanoma) [µM],TGI (COLO 205 colon) [µM]
O=C1c2cccc3c2C(=O)c2c(cccc21)OCCOCCOCCOCCO3,> 100,> 100,> 100,> 100,> 100,> 100,> 100,> 100,> 100,> 100,> 100,> 100,> 100,> 100,58.9,> 100,,,
Cc1n(Cc2ccccc2)c2c([n+]1C)C(=O)c1ccccc1C2=O,0.219,0.826,0.197,0.554,0.0577,,0.763,1.45,0.388,0.0916,39.1,0.135,0.282,0.512,> 45.5,0.775,> 100,0.541,0.0794
Cc1c(O)ccc2c(O)c(NC(=O)c3ccc4c(c3)CCC(C)(C)O4)c(=O)oc12,> 100,> 100,> 100,> 100,> 100,> 100,> 100,> 100,> 100,> 100,> 100,> 100,,> 100,> 100,> 100,> 100,> 100,> 100
Nc1c(C(=O)O)nnc2ccc(Cl)cc12,> 100,> 100,> 100,> 100,> 100,> 100,> 100,> 100,> 100,> 100,> 100,> 100,> 100,> 100,> 100,> 100,> 100,,> 100
O=c1sc2ccccc2n1CC1CS1 (stereo not drawn),,> 100,> 100,> 100,> 100,> 100,> 100,> 100,> 100,> 100,> 100,> 100,> 100,> 100,> 100,> 100,,> 100,> 100
C=CCc1c(O)c2c(c3oc(=O)cc(C)c13)CC(C)O2 (stereo not drawn),> 100,> 100,> 100,> 100,> 100,> 100,> 100,> 100,> 100,> 100,> 100,> 100,> 100,> 100,> 100,> 100,,,
CC(C)Cc1ccc(C(C)C(=O)N2CCN(/C=C/c3ccccc3)CC2)cc1 (stereo not drawn),29.1,29.1,29.7,32.2,30.4,23.4,30.3,31.8,27,22,25.6,25,,26.3,,29.7,28.2,32.1,29.5
CCOc1ncn(-c2ccc(NC(=S)Nc3ncccn3)cc2)n1,> 100,56,> 100,> 100,,57.3,> 100,46,,> 100,> 100,38.6,91.3,> 100,59.5,> 100,,59.8,81.7
CCCC(=O)OCC1OC(n2ccc(N)nc2=O)C(OC(=O)CCC)C1OC(=O)CCC (stereo not drawn),> 100,> 100,> 100,> 100,> 100,66.9,> 100,> 100,> 100,> 100,> 100,> 100,,> 100,,8.55,> 100,> 95.2,> 100
